What was measured:
PIK3C2B = molecular target: T1, PIK3C2B (Homo sapiens, UniProt O00750); assay: ADP-Glo biochemical assay; settings: 50 μM ATP, read-out: IC50 against PIK3C2B
T1 construct: purchased Invitrogen

PI4KA = molecular target: T2, PI4KA (Homo sapiens, UniProt P42356); assay: ADP-Glo biochemical assay; settings: 50 μM ATP, read-out: IC50 against PI4KA
T2 construct: purchased Invitrogen

mTOR kinase = molecular target: T3, mTOR kinase (Homo sapiens, UniProt P42345); assay: DiscoveRx's KinomeScan binding; settings: read-out: % control number, mTOR
T3 construct: purchased DiscoveRx (KinomeScan platform)

mTORC1 kinase = mTORC1 kinase (Homo sapiens, UniProt P42345); assay: in vitro IP kinase assay; type: biochemical; settings: activity-based in vitro IP kinase assay; read-out: EC50 mTORC1 kinase inhibition
[1] = tested on: LC3BII accumulation in HeLa cells; assay: LC3BII accumulation in the presence of EBSS and HCQ (immunoblot); type: cell-based; settings: Homo sapiens, EBSS and HCQ (25 μM), read-out: EC50 prevention of LC3BII accumulation
Experimental: (§1) HeLa cells were treated with different concentrations of inhibitors for 16 hours. For all immunofluorescence experiments, cells were fixed in -20 °C methanol for 5 minutes or 3.7% (v/v) formaldehyde in phosphate-buffered saline (PBS) for 20 minutes. For LC3B staining, cells were fixed in -20 °C methanol. For EEA1 and LAMP1 staining, cells were fixed in PBS+ formaldehyde. Cells were then permeabilized with TBSTx (0.1% Triton X-100), blocked in AbDil (TBSTx + 2% BSA + 0.1% NaN3), and probed with primary and secondary antibodies diluted in AbDil. Cells were rinsed thoroughly with TBSTx and mounted by anti-fade prolong Gold with DAPI. Images were taken using a Leica DMI4000B fluorescent microscope. All experiments were repeated at least three times). […] Cells were lysed in lysis buffer. P62, LC3B, and GAPDH antibodies were used for immunoblotting.

[2] = tested on: LC3B puncta in HeLa cells; assay: Immunofluorescence of LC3B puncta; type: cell-based; settings: 16 hours
Experimental: as §1

[3] = tested on: LAMP1 localization in HeLa cells; assay: Immunofluorescence of LAMP1 localization; type: cell-based
Experimental: as §1

VPS34 = molecular target: T4, VPS34 (Homo sapiens, UniProt Q8NEB9); assay: Kinase kinetic assay with varied ATP; type: biochemical; settings: varied ATP concentrations
T4 construct: purchased Invitrogen
T4 sequence (Q8NEB9 whole entry): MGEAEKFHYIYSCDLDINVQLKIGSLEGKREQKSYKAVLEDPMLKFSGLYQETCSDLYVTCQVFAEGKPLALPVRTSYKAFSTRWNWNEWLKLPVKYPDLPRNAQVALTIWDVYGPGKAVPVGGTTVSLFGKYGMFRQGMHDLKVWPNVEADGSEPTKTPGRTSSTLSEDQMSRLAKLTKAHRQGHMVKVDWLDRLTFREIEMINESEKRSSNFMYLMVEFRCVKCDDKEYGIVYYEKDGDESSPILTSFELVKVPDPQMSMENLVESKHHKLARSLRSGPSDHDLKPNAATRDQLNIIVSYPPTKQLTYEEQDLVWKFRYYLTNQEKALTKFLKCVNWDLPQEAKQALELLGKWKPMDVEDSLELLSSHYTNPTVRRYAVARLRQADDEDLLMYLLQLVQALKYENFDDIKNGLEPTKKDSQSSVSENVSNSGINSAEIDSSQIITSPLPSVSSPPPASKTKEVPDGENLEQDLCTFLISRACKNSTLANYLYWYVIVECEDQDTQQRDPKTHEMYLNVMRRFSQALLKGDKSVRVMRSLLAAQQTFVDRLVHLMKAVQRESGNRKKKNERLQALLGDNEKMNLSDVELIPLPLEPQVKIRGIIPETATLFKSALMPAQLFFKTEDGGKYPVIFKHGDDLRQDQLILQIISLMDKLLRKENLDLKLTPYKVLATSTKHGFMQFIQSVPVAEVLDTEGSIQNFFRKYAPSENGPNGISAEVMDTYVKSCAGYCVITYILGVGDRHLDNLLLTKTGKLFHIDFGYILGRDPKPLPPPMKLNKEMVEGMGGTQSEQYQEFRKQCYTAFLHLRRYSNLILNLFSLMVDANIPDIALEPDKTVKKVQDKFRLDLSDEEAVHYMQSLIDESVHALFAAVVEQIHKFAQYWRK
Experimental: (§2) Kinetic analyses of PI3Kδ and Vps34 were performed using a luminometric kinase assay varying the concentration of ATP using the ADP-Glo reagents (Promega). […] After 60 min incubation at RT, varied concentrations of ATP and 0.1 mM substrate (PIP2:PS for PI3Kδ, PI:PS for Vps34) were added and incubated for 60 min at 37° C. The overall rate of reaction was determined as the slope of the decreasing phase of the reaction. Each data point was collected in duplicate and kinetic parameters were obtained using Prism 5.0 (GraphPad Software, San Diego, CA).

HL-60 = assay: Anti-proliferative effect; type: cell-based; settings: Homo sapiens, HL-60, read-out: GI50 HL-60
HT = assay: Anti-proliferative effect; type: cell-based; settings: Homo sapiens, read-out: GI50 HT
Ramos = assay: Anti-proliferative effect; type: cell-based; settings: Homo sapiens, read-out: GI50 Ramos
Namalwa = assay: Anti-proliferative effect; type: cell-based; settings: read-out: GI50 Namalwa
OCI-AML-2 [4] = assay: Colony formation (colonogenic assay); type: cell-based; settings: Homo sapiens, OCI-AML2
MEC-2 [5] = assay: Colony formation (colonogenic assay); type: cell-based; settings: MEC2; CLL
primary CLL cells = assay: Growth of patient primary cells; type: cell-based; settings: CLL cell, 72 hours, read-out: cell proliferation inhibited
From the text: Peripheral blood mononuclear cells (PBMCs) from individuals with CLL were isolated by density centrifugation through Ficoll and frozen for each subject. Those subjects with low white counts whose CLL cell purity was expected to be < 85% underwent B cell isolation using RosetteSep. The protocol was approved by the Dana-Farber Harvard Cancer Center Institutional Review Board and all subjects signed written informed consent prior to participation.

[6] = tested on: PI3Kδ-mediated signaling in OCI-AML-2, OCI-AML-3, MV4-11 and MEC-2 cell lines; assay: PI3Kδ-mediated signaling pathway (immunoblotting); type: cell-based; settings: all four cell lines
From the text: The following antibodies were purchased from Cell Signaling Technology: Akt(#4691), Phospho-Akt(Thr308)(#4056), Phospho-Akt(Ser473)(#4060), GAPDH, GSK-3β(#9315), Phospho-GSK-3β(#9323), FoxO1(#2880), Phospho-FoxO1 (Thr24)/FoxO3a(Thr32)/FoxO4(Thr28)(#2599), PRAS40(#2691), Phospho-PRAS40 (Thr246)(#2997), 4E-BP1(#9644), p70 S6K(#2708), Phospho-p70 S6K (Thr389)(#9234). SQSTM1/p62 (D5E2)(#8025), LC3B(#12513). PARP(#9532), Caspase-3(#9665), Phospho-p44/42 MAPK (Erk1/2) (Thr202/Tyr204)(#4377), p44/42 MAPK (Erk1/2) (#4695), Phospho-NF-ΚB P65 (Ser 536)(#3033), NF-ΚB P65(#4764). Lysophosphatidic Acid (#sc-201053, Santa Cruz), Recombinant Human PDGF-BB (#220-BB, R&D), Recombinant Human C5a (Peprotech, #300-70), goat anti-IgM (#5C07615, Meridian). LC3B antibody (#3868, CST). Tubulin antibody (#8035, Santa Cruz). EEA1 antibody (#610456, BD Bioscience) and LAMP1 antibody (#24170, Abcam). Secondary antibodies, Alexa488-anti-mouse, Alexa594-anti-rabbit and Prolong gold mounting medium with DAPI were purchased from Invitrogen.

MEC-2 [7] = assay: Induction of apoptosis (PARP cleavage); type: cell-based; settings: MEC-2, evident at 3 μM to 10 μM
OCI-AML-2 [8] = assay: Autophagy markers LC3BII and p62 (immunoblotting); type: cell-based
OCI-AML-3 [9] = assay: Autophagy markers LC3BII and p62 (immunoblotting); type: cell-based
MV4-11 = assay: Cell cycle analysis; type: cell-based; settings: MV4-11, 48 h treatment
OCI-AML-3 [10] = assay: Cell cycle analysis; type: cell-based; settings: OCI-AML-3, 48 h treatment
PI3Kδ = PI3Kδ (Homo sapiens, UniProt O00329); assay: Kinase kinetic assay with varied ATP; type: biochemical; set-up: purchased Invitrogen; settings: varied ATP concentrations
Experimental: as §2

T2 sequence (P42356 whole entry): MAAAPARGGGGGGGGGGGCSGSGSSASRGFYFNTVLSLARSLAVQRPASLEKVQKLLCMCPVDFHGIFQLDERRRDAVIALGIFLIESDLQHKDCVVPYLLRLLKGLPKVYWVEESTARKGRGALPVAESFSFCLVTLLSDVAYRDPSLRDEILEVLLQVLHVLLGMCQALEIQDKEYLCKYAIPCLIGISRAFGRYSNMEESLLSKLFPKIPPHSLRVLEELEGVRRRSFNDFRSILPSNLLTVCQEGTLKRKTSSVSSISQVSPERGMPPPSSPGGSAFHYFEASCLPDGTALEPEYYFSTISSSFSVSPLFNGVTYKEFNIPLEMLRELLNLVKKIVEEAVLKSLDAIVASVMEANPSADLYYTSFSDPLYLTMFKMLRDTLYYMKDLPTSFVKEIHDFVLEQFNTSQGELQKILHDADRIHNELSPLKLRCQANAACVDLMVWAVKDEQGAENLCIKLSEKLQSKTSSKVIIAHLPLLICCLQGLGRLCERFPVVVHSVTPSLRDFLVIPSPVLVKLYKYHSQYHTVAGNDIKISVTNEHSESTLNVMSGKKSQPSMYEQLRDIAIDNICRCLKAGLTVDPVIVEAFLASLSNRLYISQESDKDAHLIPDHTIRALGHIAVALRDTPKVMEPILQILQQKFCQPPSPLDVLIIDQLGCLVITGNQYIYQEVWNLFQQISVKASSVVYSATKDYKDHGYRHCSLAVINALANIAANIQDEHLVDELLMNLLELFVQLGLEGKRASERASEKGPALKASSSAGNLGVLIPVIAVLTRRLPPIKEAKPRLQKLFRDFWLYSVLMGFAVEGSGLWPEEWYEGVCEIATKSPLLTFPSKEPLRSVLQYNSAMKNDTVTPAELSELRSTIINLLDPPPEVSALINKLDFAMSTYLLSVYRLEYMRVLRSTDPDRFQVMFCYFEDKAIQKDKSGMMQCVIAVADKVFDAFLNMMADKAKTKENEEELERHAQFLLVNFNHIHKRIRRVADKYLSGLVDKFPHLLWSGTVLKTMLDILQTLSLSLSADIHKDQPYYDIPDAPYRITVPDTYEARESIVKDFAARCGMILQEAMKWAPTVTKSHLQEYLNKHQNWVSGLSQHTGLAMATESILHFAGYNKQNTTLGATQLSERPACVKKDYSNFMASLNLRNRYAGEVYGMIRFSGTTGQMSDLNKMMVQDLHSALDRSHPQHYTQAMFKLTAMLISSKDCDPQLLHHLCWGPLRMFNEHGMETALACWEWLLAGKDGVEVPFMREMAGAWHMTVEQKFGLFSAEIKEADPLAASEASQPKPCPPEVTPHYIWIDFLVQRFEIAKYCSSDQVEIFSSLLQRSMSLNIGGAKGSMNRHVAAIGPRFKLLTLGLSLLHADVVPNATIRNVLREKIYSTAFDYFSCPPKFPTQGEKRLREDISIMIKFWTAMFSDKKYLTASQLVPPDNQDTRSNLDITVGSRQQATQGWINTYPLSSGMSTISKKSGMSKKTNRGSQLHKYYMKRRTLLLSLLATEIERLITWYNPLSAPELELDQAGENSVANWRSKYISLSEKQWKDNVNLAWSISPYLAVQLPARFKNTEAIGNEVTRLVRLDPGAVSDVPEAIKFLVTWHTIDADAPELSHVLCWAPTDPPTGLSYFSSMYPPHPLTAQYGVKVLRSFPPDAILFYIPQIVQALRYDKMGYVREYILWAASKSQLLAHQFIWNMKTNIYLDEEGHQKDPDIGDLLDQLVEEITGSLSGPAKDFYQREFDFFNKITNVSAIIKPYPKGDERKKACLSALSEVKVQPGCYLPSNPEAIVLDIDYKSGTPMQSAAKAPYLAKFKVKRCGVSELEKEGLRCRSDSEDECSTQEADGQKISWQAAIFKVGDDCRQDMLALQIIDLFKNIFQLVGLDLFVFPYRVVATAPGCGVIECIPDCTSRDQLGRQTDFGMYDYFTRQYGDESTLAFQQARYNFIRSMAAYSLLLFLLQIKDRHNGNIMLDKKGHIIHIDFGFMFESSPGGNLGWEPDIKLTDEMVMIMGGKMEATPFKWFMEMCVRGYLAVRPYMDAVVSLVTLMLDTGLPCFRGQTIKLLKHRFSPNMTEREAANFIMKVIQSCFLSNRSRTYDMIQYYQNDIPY
T1 sequence (O00750 whole entry): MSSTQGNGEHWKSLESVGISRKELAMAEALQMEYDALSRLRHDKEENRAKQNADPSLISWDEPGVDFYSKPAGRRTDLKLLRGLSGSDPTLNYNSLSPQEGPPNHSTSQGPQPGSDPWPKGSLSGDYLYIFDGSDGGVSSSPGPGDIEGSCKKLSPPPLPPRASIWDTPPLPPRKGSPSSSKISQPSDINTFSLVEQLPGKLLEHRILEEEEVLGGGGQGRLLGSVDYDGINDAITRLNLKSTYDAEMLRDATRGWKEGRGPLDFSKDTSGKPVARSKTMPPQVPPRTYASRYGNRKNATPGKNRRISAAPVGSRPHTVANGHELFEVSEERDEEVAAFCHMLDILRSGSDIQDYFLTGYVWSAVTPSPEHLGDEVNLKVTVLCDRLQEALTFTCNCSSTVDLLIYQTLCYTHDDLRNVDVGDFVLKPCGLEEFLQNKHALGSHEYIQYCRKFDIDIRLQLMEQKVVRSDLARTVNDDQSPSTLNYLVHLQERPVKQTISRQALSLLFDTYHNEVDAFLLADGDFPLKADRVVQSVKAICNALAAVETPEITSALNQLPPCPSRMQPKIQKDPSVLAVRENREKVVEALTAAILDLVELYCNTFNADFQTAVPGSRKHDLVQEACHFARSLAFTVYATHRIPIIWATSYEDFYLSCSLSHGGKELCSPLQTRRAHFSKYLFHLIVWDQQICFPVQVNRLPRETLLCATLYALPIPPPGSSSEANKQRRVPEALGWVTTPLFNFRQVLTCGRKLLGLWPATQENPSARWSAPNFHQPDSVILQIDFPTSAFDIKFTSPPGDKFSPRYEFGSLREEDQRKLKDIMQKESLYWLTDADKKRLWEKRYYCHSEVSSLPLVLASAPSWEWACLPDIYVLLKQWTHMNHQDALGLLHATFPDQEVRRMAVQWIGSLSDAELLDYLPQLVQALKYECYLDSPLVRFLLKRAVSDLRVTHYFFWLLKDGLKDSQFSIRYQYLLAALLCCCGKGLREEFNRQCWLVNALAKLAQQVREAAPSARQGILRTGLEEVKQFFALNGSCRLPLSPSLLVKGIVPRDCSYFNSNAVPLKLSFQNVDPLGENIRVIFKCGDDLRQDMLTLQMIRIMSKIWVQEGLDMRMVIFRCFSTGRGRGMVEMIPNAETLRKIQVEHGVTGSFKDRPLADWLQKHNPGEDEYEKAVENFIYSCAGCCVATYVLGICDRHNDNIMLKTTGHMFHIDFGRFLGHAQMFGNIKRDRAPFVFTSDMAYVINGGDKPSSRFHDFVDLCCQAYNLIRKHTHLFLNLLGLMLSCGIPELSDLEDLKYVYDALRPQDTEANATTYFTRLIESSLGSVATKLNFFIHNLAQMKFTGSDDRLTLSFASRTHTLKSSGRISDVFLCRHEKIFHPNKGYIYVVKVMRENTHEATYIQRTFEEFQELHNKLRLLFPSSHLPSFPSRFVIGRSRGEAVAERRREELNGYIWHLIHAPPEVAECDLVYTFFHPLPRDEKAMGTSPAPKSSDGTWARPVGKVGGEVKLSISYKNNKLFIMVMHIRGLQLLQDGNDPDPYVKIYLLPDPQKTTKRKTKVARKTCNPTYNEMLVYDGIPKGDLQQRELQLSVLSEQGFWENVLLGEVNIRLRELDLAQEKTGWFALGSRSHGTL

Cc1nc(NC(=O)CN)sc1-c1cnc(Cl)c(NS(=O)(=O)c2ccc(C(C)(C)C)cc2)c1 [PI3KD/V-IN-01, 2-amino-N-(5-(5-(4-tert-butylphenylsulfonamido)-6-chloropyridin-3-yl)-4-methylthiazol-2-yl)acetamide]
IC50 (PIK3C2B): > 10000 nM
IC50 (PI4KA): > 10000 nM
remaining binding at 1 µM (mTOR kinase): 0%
EC50 (mTORC1 kinase): 1700 nM
EC50 [1]: 413 nM
Effect on LC3B puncta [2]: increased LC3B puncta
Effect on lysosome marker LAMP1 localization [3]: affected
Mode of inhibition against Vps34 (VPS34): ATP competitive inhibitor
GI50 (HL-60): 2700 nM
GI50 (HT): 1900 nM
GI50 (Ramos): 5400 nM
GI50 (Namalwa): 1300 nM
EC50 (OCI-AML-2 [4]): 145 nM
EC50 (MEC-2 [5]): 1580 nM
inhibition at 1 µM (primary CLL cells): ~50%
Activity of GSK3β and NFκB [6]: not affected
Phosphorylation of 4EBP1 [6]: not inhibited
effect on pAKT(T308, S473), pFOXO1, pPRAS40 and pS6K [6]: inhibition of pAKT(T308, S473) and downstream pFOXO1, pPRAS40 and pS6K
induction of apoptosis (MEC-2 [7]): only a modest induction of apoptosis
levels of the autophagy markers, LC3BII and p62 (OCI-AML-2 [8]): concentration-dependent increase
levels of the autophagy markers, LC3BII and p62 (OCI-AML-3 [9]): concentration-dependent increase
cell cycle progression (MV4-11): arrested in the G0/G1 phase
cell cycle progression (OCI-AML-3 [10]): arrested in the G0/G1 phase
Mode of inhibition against PI3Kδ (PI3Kδ): ATP competitive inhibitor

From PMC5288202, “Simultaneous inhibition of Vps34 kinase would enhance PI3Kδ inhibitor cytotoxicity in the B-cell malignancies” (Oncotarget, 2016)
